Assay results as given in US9376418B2, “Substituted pyridine spleen tyrosine kinase (SYK) inhibitors” (Merck Sharp & Dohme Corp., priority 2012, dated 2016).

These molecules were tested against T1, recombinant human GST-SYK (Homo sapiens, UniProt P43405) (assay: Homogeneous Time-Resolved Fluorescence (HTRF) assay for the recombinant human Syk enzyme). Settings: HTRF assay, recombinant human GST-SYK; IC50 given as class symbols; read-out: rhSYK Activity.
T1 construct: purchased Carna Biosciences 08-176
Type: biochemical
Method in brief: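 HTRF read-out: Europium-anti-phosphotyrosine antibody (2 nM) plus SA-APC (70 nM) in EDTA-containing buffer quenched the reaction, and signal was read after 30 minutes. Kinase step used […], 250 nM biotinylated peptide, 25 μM ATP, 5 mM Mg, 45′ at room temperature.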
`Cc1cc(Nc2nccc(C(F)(F)F)n2)cc(-c2cncc(C(=O)O)c2)c1` [Example 2.69, 5-(3-methyl-5-{[4-(trifluoromethyl)pyrimidin-2-yl]amino}phenyl)pyridine-3-carboxylic acid] was tested, and the IC50 was less than 100 nM. Molecule `Cc1cc(Nc2nccc(C(F)(F)F)n2)cc(-c2ccc(N3CCCC[C@@H]3C(=O)O)nc2)c1` [Example 7.85, (2R)-1-[5-(3-methyl-5-{[4-(trifluoromethyl)pyrimidin-2-yl]amino}phenyl)pyridin-2-yl]piperidine-2-carboxylic acid] has an IC50 of less than 100 nM. Molecule `Cc1cc(Nc2nccc(C(F)(F)F)n2)cc(-c2ccc(OC3CCC(C(=O)O)CC3)nc2)c1` (stereo not drawn) [Example 2.110, 4-{[5-(3-methyl-5-{[4-(trifluoromethyl)pyrimidin-2-yl]amino}phenyl)pyridin-2-yl]oxy}cyclohexanecarboxylic acid] has an IC50 of less than 100 nM. `Cc1cc(Nc2nccc(C(F)(F)F)n2)cc(-c2ccc(C(=O)NC3CC3)nc2)c1` [Example 2.71, N-cyclopropyl-5-(3-methyl-5-{[4-(trifluoromethyl)pyrimidin-2-yl]amino}phenyl)pyridine-2-carboxamide] gave an IC50 of 100 to 1000 nM. `Cc1cc(Nc2ncc(F)c(C)n2)cc(-c2ccc(C(C)(O)C3CCC(C(=O)O)CC3)nc2)c1` (single isomer, unassigned) [Example 9.83, trans-4-[(1R or 1S)-1-(5-{3-[(5-fluoro-4-methylpyrimidin-2-yl)amino]-5-methylphenyl}pyridin-2-yl)-1-hydroxyethyl]cyclohexanecarboxylic acid] was tested, and the IC50 was less than 100 nM. `Cc1cc(Nc2nccc(C(F)(F)F)n2)cc(-c2ccnc(N3CC4CNC(CO)C4C3)c2)c1` (stereo not drawn) [Example 15.84, {5-[4-(3-methyl-5-{[4-(trifluoromethyl)pyrimidin-2-yl]amino}phenyl)pyridin-2-yl]octahydropyrrolo[3,4-c]pyrrol-1-yl}methanol] was tested, and the IC50 was 1000 to 10000 nM. With `Cc1cc(Nc2nccc(C(F)(F)F)n2)cc(-c2ccc(C(=O)N3CC(=O)NC(=O)C3)nc2)c1` [Example 16.18, 4-{[5-(3-methyl-5-{[4-(trifluoromethyl)pyrimidin-2-yl]amino}phenyl)pyridin-2-yl]carbonyl}piperazine-2,6-dione] the IC50 was less than 100 nM. `COCC(Nc1ccc(-c2cc(C)cc(Nc3nccc(C(F)(F)F)n3)c2)cn1)C(=O)O` (stereo not drawn) [Example 7.76, O-methyl-N-[5-(3-methyl-5-{[4-(trifluoromethyl)pyrimidin-2-yl]amino}phenyl)pyridin-2-yl]serine] showed an IC50 of less than 100 nM. `CNC(=O)CN(C)C(=O)c1ccc(-c2cc(C)cc(Nc3nccc(C(F)(F)F)n3)c2)cn1` [Example 16.61, N-methyl-N-[2-(methylamino)-2-oxoethyl]-5-(3-methyl-5-{[4-(trifluoromethyl)pyrimidin-2-yl]amino}phenyl)pyridine-2-carboxamide] showed an IC50 of less than 100 nM. For `Cc1cc(Nc2nccc(C(F)(F)F)n2)cc(-c2ccc(C(=O)NCc3cncn3C)nc2)c1` [Example 16.15, N-[(1-methyl-1H-imidazol-5-yl)methyl]-5-(3-methyl-5-{[4-(trifluoromethyl)pyrimidin-2-yl]amino}phenyl)pyridine-2-carboxamide], the IC50 was 100 to 1000 nM. `CCOC(=O)CCc1ccc(-c2cc(C)cc(Nc3nccc(C)n3)c2)cn1` [Example 2.87, ethyl 3-(5-{3-methyl-5-[(4-methylpyrimidin-2-yl)amino]phenyl}pyridin-2-yl)propanoate] showed an IC50 of 100 to 1000 nM. `Cc1cc(Nc2nccc(C(F)(F)F)n2)cc(-c2cnc3c(c2)CCN3)c1` [Example 2.47, N-[3-(2,3-dihydro-1H-pyrrolo[2,3-b]pyridin-5-yl)-5-methylphenyl]-4-(trifluoromethyl)pyrimidin-2-amine] was tested, and the IC50 was less than 100 nM. With `CCOC(=O)CCc1ccc(-c2cc(C)cc(Nc3nccc(C4CC4)n3)c2)nc1` [Example 2.37, ethyl 3-(6-{3-[(4-cyclopropylpyrimidin-2-yl)amino]-5-methylphenyl}pyridin-3-yl)propanoate] the IC50 was 100 to 1000 nM. Molecule `Cc1cc(Nc2nccc(C(F)(F)F)n2)cc(-c2ccc(C(=O)NCCO)nc2)c1` [Example 16.5, N-(2-hydroxyethyl)-5-(3-methyl-5-{[4-(trifluoromethyl)pyrimidin-2-yl]amino}phenyl)pyridine-2-carboxamide] has an IC50 of less than 100 nM. For `Cc1cc(Nc2nccc(C(F)(F)F)n2)cc(-c2ccc(NCCC(=O)O)nc2)c1` [Example 7.88, N-[5-(3-methyl-5-{[4-(trifluoromethyl)pyrimidin-2-yl]amino}phenyl)pyridin-2-yl]-beta-alanine], the IC50 was less than 100 nM. Work on `Cc1cc(Nc2nccc(C(F)(F)F)n2)cc(-c2ccnc(NCCC(N)=O)c2)c1` [Example 15.59, N~3~-[4-(3-methyl-5-{[4-(trifluoromethyl)pyrimidin-2-yl]amino}phenyl)pyridin-2-yl]-beta-alaninamide] yielded an IC50 of less than 100 nM. For `O=C(O)[C@@H]1CCN1c1ccc(-c2cc(F)cc(Nc3nccc(C(F)(F)F)n3)c2)cn1` [Example 7.127, (2S)-1-[5-(3-fluoro-5-{[4-(trifluoromethyl)pyrimidin-2-yl]amino}phenyl)pyridin-2-yl]azetidine-2-carboxylic acid], the IC50 was less than 100 nM. For `Cc1cc(Nc2nccc(C(F)(F)F)n2)cc(-c2ccc(N3CCN(CCCC(=O)O)CC3)nc2)c1` [Example 7.139, 4-{4-[5-(3-methyl-5-{[4-(trifluoromethyl)pyrimidin-2-yl]amino}phenyl)pyridin-2-yl]piperazin-1-yl}butanoic acid], the IC50 was less than 100 nM. Work on `Cc1cc(Nc2nccc(C3CC3)n2)cc(-c2ccc(N[C@H]3CC[C@H](C(=O)O)CC3)nc2)c1` [Example 2.104, trans-4-[(5-{3-[(4-cyclopropylpyrimidin-2-yl)amino]-5-methylphenyl}pyridin-2-yl)amino]cyclohexanecarboxylic acid] yielded an IC50 of less than 100 nM. `Cc1cc(Nc2nccc(C(F)(F)F)n2)cc(-c2ccc(N[C@@H](C)C(=O)O)nc2)c1` [Example 7.86, N-[5-(3-methyl-5-{[4-(trifluoromethyl)pyrimidin-2-yl]amino}phenyl)pyridin-2-yl]-L-alanine] gave an IC50 of less than 100 nM. `Cc1cc(Nc2nccc(C(F)(F)F)n2)cc(-c2ccc(NCC(=O)NCC(=O)O)nc2)c1` [Example 7.138, N-[5-(3-methyl-5-{[4-(trifluoromethyl)pyrimidin-2-yl]amino}phenyl)pyridin-2-yl]glycylglycine] showed an IC50 of less than 100 nM. `Cc1cc(Nc2nccc(C(F)(F)F)n2)cc(-c2ccc(N3CC(C4CCCC(C(=O)O)C4)C3)nc2)c1` (stereo not drawn) [Example 7.146, 3-{1-[5-(3-methyl-5-{[4-(trifluoromethyl)pyrimidin-2-yl]amino}phenyl)pyridin-2-yl]azetidin-3-yl}cyclohexanecarboxylic acid] gave an IC50 of less than 100 nM. In the case of `Cc1cc(Nc2nccc(C(F)(F)F)n2)cc(-c2cccc(CCC(=O)O)n2)c1` [Example 2.31, 3-[6-(3-methyl-5-{[4-(trifluoromethyl)pyrimidin-2-yl]amino}phenyl)pyridin-2-yl]propanoic acid], the IC50 is reported as less than 100 nM. `Cc1cc(Nc2nccc(C(F)(F)F)n2)cc(-c2ccc(N[C@@H](Cc3ccccc3)C(=O)O)nc2)c1` [Example 7.97, N-[5-(3-methyl-5-{[4-(trifluoromethyl)pyrimidin-2-yl]amino}phenyl)pyridin-2-yl]-L-phenylalanine] was tested, and the IC50 was less than 100 nM. `CC(=O)Nc1cc(Nc2nccc(C(F)(F)F)n2)cc(-c2ccncc2)c1` [Example 6.5, N-(3-pyridin-4-yl-5-{[4-(trifluoromethyl)pyrimidin-2-yl]amino}phenyl)acetamide] gave an IC50 of less than 100 nM. Work on `Cc1cc(Nc2nccc(C(F)(F)F)n2)cc(-c2ccc(NC3(C(=O)O)CC3)nc2)c1` [Example 7.129, 1-{[5-(3-methyl-5-{[4-(trifluoromethyl)pyrimidin-2-yl]amino}phenyl)pyridin-2-yl]amino}cyclopropanecarboxylic acid] yielded an IC50 of less than 100 nM. In the case of `Cc1cc(Nc2nccc(C(F)(F)F)n2)cc(-c2cncc(NCC(=O)O)c2)c1` [Example 15.20, N-[5-(3-methyl-5-{[4-(trifluoromethyl)pyrimidin-2-yl]amino}phenyl)pyridin-3-yl]glycine], the IC50 is reported as less than 100 nM. `Cc1cc(Nc2ncc(F)c(C3CC3)n2)cc(-c2ccc(NC(C)(C)C(=O)O)nc2)c1` [Example 7.159, N-(5-{3-[(4-cyclopropyl-5-fluoropyrimidin-2-yl)amino]-5-methylphenyl}pyridin-2-yl)-2-methylalanine] was tested, and the IC50 was less than 100 nM. With `Cc1cc(Nc2nccc(C(F)(F)F)n2)cc(-c2ccc(OC3CCC(C(=O)O)CC3)nc2)c1` (stereo not drawn) [Example 2.111, 4-{[5-(3-methyl-5-{[4-(trifluoromethyl)pyrimidin-2-yl]amino}phenyl)pyridin-2-yl]oxy}cyclohexanecarboxylic acid] the IC50 was less than 100 nM. With `Cc1cc(Nc2nccc(C(F)(F)F)n2)cc(-c2cnc3c(c2)OCCN3)c1` [Example 2.52, N-[3-(3,4-dihydro-2H-pyrido[3,2-b][1,4]oxazin-7-yl)-5-methylphenyl]-4-(trifluoromethyl)pyrimidin-2-amine] the IC50 was less than 100 nM. Molecule `Cc1cc(Nc2nccc(C(F)(F)F)n2)cc(-c2ccc(N3CCC[C@@]3(C)C(=O)O)nc2)c1` [Example 7.121, 2-methyl-1-[5-(3-methyl-5-{[4-(trifluoromethyl)pyrimidin-2-yl]amino}phenyl)pyridin-2-yl]-L-proline] has an IC50 of less than 100 nM. Work on `CCCN1CCCN(c2cc(-c3cc(C)cc(Nc4nccc(C(F)(F)F)n4)c3)ccn2)CC1` [Example 15.76, N-{3-methyl-5-[2-(4-propyl-1,4-diazepan-1-yl)pyridin-4-yl]phenyl}-4-(trifluoromethyl)pyrimidin-2-amine] yielded an IC50 of less than 100 nM. For `Cc1cc(Nc2nccc(C(F)(F)F)n2)cc(-c2ccc(N3CCCC4(CCOC4=O)C3)nc2)c1` (stereo not drawn) [Example 7.14, 7-[5-(3-methyl-5-{[4-(trifluoromethyl)pyrimidin-2-yl]amino}phenyl)pyridin-2-yl]-2-oxa-7-azaspiro[4.5]decan-1-one], the IC50 was 100 to 1000 nM.
